Measured values: ChEMBL document CHEMBL2073780, “The antiprogestatin drug RU 486 potentiates doxorubicin cytotoxicity in multidrug resistant cells through inhibition of P-glycoprotein function” (FEBS Lett, 1994)

Legend:
Assay type in all cases: functional, cell-based
[1] = biological target: Multidrug resistance protein 1a (Rattus norvegicus) (UniProt Q6PSM0); experiment: TP_TRANSPORTER: increase in Doxorubicin intracellular accumulation (Doxorubicin: 10 ug/mL, Progesterone: 10 uM) in RHC1 cells
Chain of Multidrug resistance protein 1a (Rattus norvegicus) (Q6PSM0 as listed by the source): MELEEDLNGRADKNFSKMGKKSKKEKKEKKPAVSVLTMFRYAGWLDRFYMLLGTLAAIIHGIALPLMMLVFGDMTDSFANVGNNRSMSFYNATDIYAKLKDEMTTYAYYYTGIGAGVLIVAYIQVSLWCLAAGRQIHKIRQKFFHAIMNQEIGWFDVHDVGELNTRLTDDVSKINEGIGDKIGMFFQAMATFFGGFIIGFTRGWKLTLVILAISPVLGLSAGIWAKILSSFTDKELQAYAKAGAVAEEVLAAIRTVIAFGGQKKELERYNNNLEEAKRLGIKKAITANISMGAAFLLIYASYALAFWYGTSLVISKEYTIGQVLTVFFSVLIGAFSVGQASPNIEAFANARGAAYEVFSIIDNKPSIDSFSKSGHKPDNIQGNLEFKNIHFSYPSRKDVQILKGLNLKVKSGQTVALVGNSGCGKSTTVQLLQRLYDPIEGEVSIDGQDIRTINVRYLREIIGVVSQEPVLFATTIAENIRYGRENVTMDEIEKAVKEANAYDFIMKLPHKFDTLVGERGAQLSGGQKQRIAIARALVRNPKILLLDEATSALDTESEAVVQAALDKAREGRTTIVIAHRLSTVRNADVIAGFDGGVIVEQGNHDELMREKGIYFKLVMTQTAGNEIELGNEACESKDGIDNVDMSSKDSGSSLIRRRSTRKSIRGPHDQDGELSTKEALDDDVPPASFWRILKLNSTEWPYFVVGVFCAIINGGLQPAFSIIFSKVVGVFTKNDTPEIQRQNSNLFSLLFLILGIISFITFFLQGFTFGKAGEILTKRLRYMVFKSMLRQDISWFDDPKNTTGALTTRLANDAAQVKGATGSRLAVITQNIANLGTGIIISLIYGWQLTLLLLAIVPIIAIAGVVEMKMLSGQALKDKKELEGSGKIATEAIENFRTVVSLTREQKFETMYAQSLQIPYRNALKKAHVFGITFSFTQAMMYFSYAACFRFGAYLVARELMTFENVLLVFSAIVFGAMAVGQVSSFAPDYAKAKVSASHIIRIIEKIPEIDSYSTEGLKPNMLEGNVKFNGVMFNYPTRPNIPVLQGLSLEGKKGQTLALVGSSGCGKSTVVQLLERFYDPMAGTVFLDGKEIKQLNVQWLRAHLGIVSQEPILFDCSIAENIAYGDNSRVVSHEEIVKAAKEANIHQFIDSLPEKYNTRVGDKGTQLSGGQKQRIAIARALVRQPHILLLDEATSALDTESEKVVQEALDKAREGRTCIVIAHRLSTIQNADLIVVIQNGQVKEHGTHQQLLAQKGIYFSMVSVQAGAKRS

[2] = biological target: ATP-dependent translocase ABCB1 (Homo sapiens, UniProt P08183); experiment: TP_TRANSPORTER: increase in Doxorubicin intracellular accumulation (Doxorubicin: 10 ug/mL, RU486: 10 uM) in K562 R7 cells; details: k562/r7, 10 µM
Chain of ATP-dependent translocase ABCB1 (P08183 whole entry): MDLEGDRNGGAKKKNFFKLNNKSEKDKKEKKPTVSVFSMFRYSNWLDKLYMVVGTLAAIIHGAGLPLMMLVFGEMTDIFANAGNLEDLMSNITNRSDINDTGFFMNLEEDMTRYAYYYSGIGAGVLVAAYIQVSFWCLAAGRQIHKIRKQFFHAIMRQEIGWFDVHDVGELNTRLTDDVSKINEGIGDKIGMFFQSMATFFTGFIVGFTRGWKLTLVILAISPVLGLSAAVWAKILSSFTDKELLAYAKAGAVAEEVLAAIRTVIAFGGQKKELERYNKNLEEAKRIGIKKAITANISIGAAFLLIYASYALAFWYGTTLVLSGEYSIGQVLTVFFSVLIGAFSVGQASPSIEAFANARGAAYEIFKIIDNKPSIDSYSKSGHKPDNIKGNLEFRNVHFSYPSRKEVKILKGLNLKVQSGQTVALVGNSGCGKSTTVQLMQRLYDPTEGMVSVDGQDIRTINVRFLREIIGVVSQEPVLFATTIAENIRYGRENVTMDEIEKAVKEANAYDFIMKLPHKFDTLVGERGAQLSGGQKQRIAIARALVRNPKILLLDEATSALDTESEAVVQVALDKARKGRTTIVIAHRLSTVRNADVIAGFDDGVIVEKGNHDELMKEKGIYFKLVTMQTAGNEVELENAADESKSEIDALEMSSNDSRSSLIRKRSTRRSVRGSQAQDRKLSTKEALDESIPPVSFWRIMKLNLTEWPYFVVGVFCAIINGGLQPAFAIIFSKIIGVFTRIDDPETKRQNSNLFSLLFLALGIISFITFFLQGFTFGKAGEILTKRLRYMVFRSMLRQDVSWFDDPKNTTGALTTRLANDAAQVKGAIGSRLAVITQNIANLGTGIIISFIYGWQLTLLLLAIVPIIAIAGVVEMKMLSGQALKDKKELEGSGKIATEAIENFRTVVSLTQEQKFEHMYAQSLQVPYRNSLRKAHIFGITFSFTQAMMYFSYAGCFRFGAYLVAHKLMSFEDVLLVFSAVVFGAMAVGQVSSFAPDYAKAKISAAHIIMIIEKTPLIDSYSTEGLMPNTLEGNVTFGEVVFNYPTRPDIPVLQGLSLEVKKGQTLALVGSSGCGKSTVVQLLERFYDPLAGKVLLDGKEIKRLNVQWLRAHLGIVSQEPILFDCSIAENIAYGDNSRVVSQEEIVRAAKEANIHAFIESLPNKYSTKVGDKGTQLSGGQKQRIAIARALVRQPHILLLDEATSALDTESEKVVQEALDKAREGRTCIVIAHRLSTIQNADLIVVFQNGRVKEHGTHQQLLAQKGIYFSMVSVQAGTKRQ

[3] = biological target: Multidrug resistance protein 1a (Rattus norvegicus) (UniProt Q6PSM0); experiment: TP_TRANSPORTER: increase in Doxorubicin intracellular accumulation (Doxorubicin: 10 ug/mL, RU486: 10 uM) in RHC1 cells

CC(=O)[C@H]1CC[C@H]2[C@@H]3CCC4=CC(=O)CC[C@]4(C)[C@H]3CC[C@]12C
Activity [1]: inhibitor [+]

CC#C[C@]1(O)CC[C@H]2[C@@H]3CCC4=CC(=O)CCC4=C3[C@@H](c3ccc(N(C)C)cc3)C[C@@]21C [MIFEPRISTONE]
Activity [2]: inhibitor [+] | Activity [3]: inhibitor [+]
